Read-outs that look alike come from different tables or passages of the source.
Assays:
[1] = system: HT29 human tumor xenografts; test: HT29 xenograft study e212, oral and i.v. (Example 26); details: for CR (complete regression) / NTR NTRa/u / NTR NTRm / PR (partial regression) / TFS (tumor-free survivor) / TR (treatment-related death): n=6
Text: The formulation for oral studies was an ethanol and Cremophor formulation while the formulation for compound 18365 and compound 19244 dosed i.v. was 5% ethanol and 95% Liposyn II 20%.

SK-MEL-28 = test: MTT cytotoxicity (IC50), SK-MEL-28; type: cell-based; details: Homo sapiens, 72 h, read-out: IN Vitro IC50 (nm) ske-mel28
Procedure: (§1) Compound 17932 was tested in four of these cell lines, while the remaining compounds were tested in all of these cell lines. All cell lines were maintained in RPMI-1640 tissue culture medium (TCM, supplemented with antibiotics and 10% fetal bovine serum) and cultured at 37° C. in humidified air containing 5% CO2. To assess the antiproliferative effects of the test compounds, 172 μL of tumor cell suspension (1.45×10^4 cells/ml) were added to each well of a 96-well plate and incubated for 24 h at 37° C. in 5% CO2 in air to allow cells to adhere. Seven 2-fold drug dilutions in TCM/DMSO were performed in triplicate in separate 96-well plates and 28 μL was transferred to the wells containing tumor cells (200 μL final volume/0.1% DMSO). Plates were incubated for 72 h and cell viability was determined by adding 50 μL of warm TCM containing 5 mg/mL MTT (3-[4,5-dimethylthiazol-2-yl]-2,5-diphenyltetrazolium bromide) to each well and incubating for 1 h at 37° C. Plates were processed and the absorbances of the resulting solutions were measured by a plate reader at 570 nm. […] (GraphPad Prism version 4.00 for Windows). Studies were conducted by Taxolog, Inc., Tallahassee, Fla.

TK-10 = test: MTT cytotoxicity (IC50), TK-10; type: cell-based; details: Homo sapiens, 72 h, read-out: IN Vitro IC50 (nm) TK10
Procedure: as §1

PANC-1 = test: MTT cytotoxicity (IC50), PANC-1; type: cell-based; details: Homo sapiens, 72 h, read-out: IN Vitro IC50 (nm) Panc
Procedure: as §1

OVCAR4 = test: MTT cytotoxicity (IC50), OVCAR4; type: cell-based; details: Homo sapiens, OVCAR-4, 72 h, read-out: IN Vitro IC50 (nm) OVCAR4
Procedure: as §1

[2] = system: human MX-1 breast carcinoma; test: MX1 xenograft study e219R1, i.v. single dose (Example 17); details: for CR (complete regression) / NTR (non-treatment-related death) / PR (partial regression) / TFS (tumor-free survivor) / TR (treatment-related death): n=5
HT29 = test: MTT cytotoxicity (IC50), HT29; type: cell-based; details: Homo sapiens, HT-29, 72 h, read-out: IN Vitro IC50 (nm) HT29
Procedure: as §1

DLD-1 = test: MTT cytotoxicity (IC50), DLD-1; type: cell-based; details: Homo sapiens
Procedure: as §1

A375 = test: MTT cytotoxicity (IC50), A375; type: cell-based; details: Homo sapiens, A-375
Procedure: as §1

SNB-19 = test: MTT cytotoxicity (IC50), SNB-19; type: cell-based; details: Homo sapiens, 72 h, read-out: IN Vitro IC50 (nm) SNB19
Procedure: as §1

OVCAR5 = test: MTT cytotoxicity (IC50), OVCAR5; type: cell-based; details: Homo sapiens, OVCAR-5, 72 h, read-out: IN Vitro IC50 (nm) OVCAR5
Procedure: as §1

[3] = system: HT29 human tumor xenografts; test: HT29 xenograft study e139 (Example 23); type: in vivo, nude mice
[4] = 25 mg/kg iv q4d × 4, vehicle EL
[5] = 50 mg/kg po q4d × 4, vehicle EC

CCC(=O)O[C@H]1C(=O)[C@@]2(C)C([C@H](OC(=O)c3ccccc3)[C@]3(O)C[C@H](OC(=O)[C@H](O)[C@@H](NC(=O)OC4CCCC4)c4cccs4)C(C)=C1C3(C)C)[C@]1(OC(C)=O)CO[C@@H]1C[C@@H]2O (some centres unmarked) [Compound 18926]
CR (complete regression) ([1]; 25 mg/kg iv q4d × 4): 5
NTR NTRa/u ([1]; 25 mg/kg iv q4d × 4): 0
NTR NTRm ([1]; 25 mg/kg iv q4d × 4): 0
PR (partial regression) ([1]; 25 mg/kg iv q4d × 4): 0
TFS (tumor-free survivor) ([1]; 25 mg/kg iv q4d × 4): 5
TR (treatment-related death) ([1]; 25 mg/kg iv q4d × 4): 1
% TGD [1, 4]: 237.14%
BW Nadir [1, 4]: 13.5% (17)
MTV (n), Day 59 [1, 4]: 0.00 (5) mm^3
Median TTE [1, 4]: 59 days
T-C [1, 4]: 41.5 days
CR (complete regression) ([1]; 50 mg/kg po q4d × 4): 1
NTR NTRa/u ([1]; 50 mg/kg po q4d × 4): 0
NTR NTRm ([1]; 50 mg/kg po q4d × 4): 0
PR (partial regression) ([1]; 50 mg/kg po q4d × 4): 5
TFS (tumor-free survivor) ([1]; 50 mg/kg po q4d × 4): 1
TR (treatment-related death) ([1]; 50 mg/kg po q4d × 4): 0
% TGD [1, 5]: 237.14%
BW Nadir [1, 5]: 10.4% (17)
MTV (n), Day 59 [1, 5]: 20.25 (6) mm^3
Median TTE [1, 5]: 59 days
T-C [1, 5]: 41.5 days
IC50 (SK-MEL-28): 600 pM
IC50 (TK-10): 300 pM
IC50 (PANC-1): 500 pM
IC50 (OVCAR4): 1000 pM
% TGD ([2]; 7.5 mg/kg iv qd × 1): 16.46%
BW Nadir ([2]; 7.5 mg/kg iv qd × 1): −7.6% (3)
Median TTE ([2]; 7.5 mg/kg iv qd × 1): 37.43 days
T-C ([2]; 7.5 mg/kg iv qd × 1): 5.29 days
activity (statistical significance) ([2]; 7.5 mg/kg iv qd × 1): non-significant activity
maximum group mean BW loss ([2]; 7.5 mg/kg iv qd × 1): 7.6%
CR (complete regression) ([2]; 7.5 mg/kg iv qd × 1): 0
NTR (non-treatment-related death) ([2]; 7.5 mg/kg iv qd × 1): 0
PR (partial regression) ([2]; 7.5 mg/kg iv qd × 1): 0
TFS (tumor-free survivor) ([2]; 7.5 mg/kg iv qd × 1): 0
TR (treatment-related death) ([2]; 7.5 mg/kg iv qd × 1): 0
% TGD ([2]; 15 mg/kg iv qd × 1): 89.79%
BW Nadir ([2]; 15 mg/kg iv qd × 1): −6.6% (4)
MTV (n), Day 60 ([2]; 15 mg/kg iv qd × 1): 0.00 (4) mm^3
Median TTE ([2]; 15 mg/kg iv qd × 1): 61 days
T-C ([2]; 15 mg/kg iv qd × 1): 28.86 days
maximum group mean BW loss ([2]; 15 mg/kg iv qd × 1): 6.6%
CR (complete regression) ([2]; 15 mg/kg iv qd × 1): 4
NTR (non-treatment-related death) ([2]; 15 mg/kg iv qd × 1): 0
PR (partial regression) ([2]; 15 mg/kg iv qd × 1): 0
TFS (tumor-free survivor) ([2]; 15 mg/kg iv qd × 1): 4
TR (treatment-related death) ([2]; 15 mg/kg iv qd × 1): 0
% TGD ([2]; 30 mg/kg iv qd × 1): 89.79%
BW Nadir ([2]; 30 mg/kg iv qd × 1): −15.5% (5)
MTV (n), Day 60 ([2]; 30 mg/kg iv qd × 1): 0.00 (5) mm^3
Median TTE ([2]; 30 mg/kg iv qd × 1): 61 days
T-C ([2]; 30 mg/kg iv qd × 1): 28.86 days
maximum group mean BW loss ([2]; 30 mg/kg iv qd × 1): 15.5%
CR (complete regression) ([2]; 30 mg/kg iv qd × 1): 5
NTR (non-treatment-related death) ([2]; 30 mg/kg iv qd × 1): 0
PR (partial regression) ([2]; 30 mg/kg iv qd × 1): 0
TFS (tumor-free survivor) ([2]; 30 mg/kg iv qd × 1): 5
TR (treatment-related death) ([2]; 30 mg/kg iv qd × 1): 0
minimal effective dose ([2]; iv qd × 1, lowest dose with statistically significant results and at least one D61 survivor or regression): 15 mg/kg
IC50 (HT29): 400 pM
IC50 (DLD-1; MTT, 72 h, read-out: IN Vitro IC50 (nm) DLD1): 800 pM
IC50 (DLD-1; Resistance MDR1+, read-out: DLD1 Colon (Table 4, quantity not named; IC50 values as Table 2)): 800 pM
IC50 (A375; MTT, 72 h, read-out: IN Vitro IC50 (nm) A375): 500 pM
IC50 (A375; Resistance MRP9, read-out: A375 Melanoma (Table 4, quantity not named; IC50 values as Table 2)): 500 pM
IC50 (SNB-19): 1000 pM
IC50 (OVCAR5): 200 pM
MTV (Day 61) ([3]; 20 mg/kg i.v. q4d×4): 83 mm^3
PR responses ([3]; 20 mg/kg i.v. q4d×4, six mice): 5
Day 51 mm^3 (tumor size) ([3]; 20 mg/kg iv q4d × 4): 142.3 mm^3
Day 54 mm^3 (tumor size) ([3]; 20 mg/kg iv q4d × 4): 147 mm^3
Max. BW Loss %; Day ([3]; 20 mg/kg iv q4d × 4): −20.7%; Day 16
Number of Death NTR ([3]; 20 mg/kg iv q4d × 4, N=6): 0
Number of Death TR ([3]; 20 mg/kg iv q4d × 4, N=6): 0

— patent US8242166B2, “C(10) ethyl ester and C(10) cyclopropyl ester substituted taxanes” (Florida State University Research Foundation, Inc., priority 2008, dated 2012)
